pIC50: −log10 of the molar value.
Assays:
[1] = system: GBP-1; assay: Gene expression profile using RTQ-PCR: GBP-1; type: cell-based, human; settings: 3 μM, 12 h
Method: The effect of the compound of example 7 was measured in stimulated untreated cells from the monocytic cell line (THP-1), human monocytes and synovial cells from rheumatoid arthritis patient. The effect of the compound in the THP-1 cell line was measured in terms of gene expression and was expressed as fold changes as compared to the cell stimulated control with no drug treatment.
THP-1 cells, human monocytes and synovial cells were treated with compound of example 7 or vehicle (0.5% DMSO). Total RNA isolation using a commercial RNA extraction kit (Qiagen Corporation, Germany) The first-strand cDNA was synthesized from total RNA using first strand cDNA synthesis kit from Invitrogen Corporation (California, USA). This was followed by real time quantitative polymerase chain reaction (RTQ PCR) using gene specific primers and standard thermal program of initial denaturation at 95° C. for 5 min and cycles of 95° C. for 10 seconds, followed by 60° C. for 30 seconds (Realplex PCR machine from Eppendorf, Germany). Quantitative measurement of products made during PCR cycles was normalized against a housekeeping gene (Actin) and was used to measure the gene expression as fold changes as compared to respective control.

[2] = system: IL-6; assay: Human monocyte assay (LPS-induced): IL-6; type: cell-based; settings: LPS stimulated human monocytes, 5 h
Source text: The assay was designed as in reference, Physiological Research, 52, 593-598, (2003), the disclosure of which is incorporated by reference for the teaching of the assay.
The objective of the assay is to determine whether compounds of the present invention—mediated inhibition of LPS-induced cytokines from monocytic THP-1 cell line translates to physiologically relevant human cells. Accordingly, the effect of compounds of the present invention on LPS—induced cytokine production from freshly isolated human monocytes was ascertained.
Peripheral blood was collected from healthy donors into potassium EDTA vacutainer tubes (BD Biosciences, USA). hPBMCs were isolated using density gradient separation (Histopaque-1077; Sigma, USA) and suspended in assay medium which is RPMI culture medium (Sigma, USA) containing 10% heat inactivated FBS (JRH Biosciences, Australia), 100 U/mL penicillin (Sigma, USA) and […] streptomycin (Sigma, USA). Monocytes in the hPBMCs were counted using a Coulter Counter following which the cells were resuspended at 2×10^5 monocytes/mL of assay medium. A cell suspension containing 2×10^4 monocytes was aliquoted per well of a 96-well plate (Nunc, USA). Subsequently, the hPBMCs were incubated for 4-5 h at 37° C., 5% CO2. During the incubation, the monocytes adhered to the bottom of 96-well plate. Following the incubation, the non-adherent lymphocytes were washed and assay medium was added to adherent monocytes. After 48 h of incubation at 37° C., 5% CO2, monocytes were pre-treated with various concentrations of test compound (prepared as 20 mM stock in DMSO; 1 μL of […] concentrated solution of test compound was dissolved in 200 μL cell suspension to achieve a final concentration of 0.03, 0.1, 0.3, 1, 3, 10, 30 and 100 μM) or vehicle (0.5% DMSO) or 10 μM dexamethasone (standard IL-6 and TNF-α inhibitor, Sigma, USA) for 30 min at 37° C., 5% CO2 and stimulated with 1 μg/mL LPS (Escherchia coli 0111:B4, Sigma, USA). The cells were then incubated for 5 h at 37° C., 5% CO2 following which supernatants were collected, stored at −70° C. and were assayed later for IL-6, and TNF-α by ELISA (OptiEIA ELISA sets, BD Biosciences, USA). The IC50 values were calculated by a nonlinear regression method using Graph Pad software (Prism 3.03).

[3] = system: IL-8; assay: Synovial tissue assay (spontaneous production): IL-8; type: cell-based; settings: Homo sapiens, synovial tissue cells from rheumatoid arthritis patients, 16 h, read-out: IC50 of IL-8 inhibition
Source text: The ability of compounds of the present invention to inhibit spontaneous production of cytokines from freshly isolated human synovial tissue cells was designed as in reference, Lancet, 29, 244-247, (1989) the disclosure of which is incorporated by reference for the teaching of the assay.
Synovial tissue was obtained from rheumatoid arthritis patients undergoing knee replacement surgery. […] Subsequently, the cells were washed 3 times with RPMI 1640 culture medium and resuspended in complete medium (RPMI 1640 culture medium supplemented with 5% FBS and 5% human serum-AB+(Sigma, USA) at a concentration of 1×10^6 cells/mL. The viability of synovial cells was determined by trypan blue dye exclusion and was uniformly ≧98%. For the experiment, 100 μL of cell suspension was added to the wells of a 96-well culture plate (Nunc, USA). Following cell plating, 100 μL of the culture medium and 1 μL of various concentrations of the test compound (test compound was dissolved in DMSO to obtain a stock solution of 20 mM. […] The IC50 values were calculated by a nonlinear regression method using the GraphPad software (Prism 3.03).

Structure (SMILES): C/C=C/C(O)C(C)/C=C/C(=N\O)C(C)C(O)C(C)C1OC(=O)/C(OC)=C/C(C)=C/C(C)C(O)C(CC)C(O)C(C)C/C(C)=C/C=C/C1OC (stereo not shown) [Compound of example 7, (3Z,5E,13E,15E)-18-((5Z,6E,10E)-3,9-Dihydroxy-5-(hydroxymino)-4,8-dimethyldodeca-6,10-dien-2-yl)-9-ethyl-8,10-dihydroxy-3,17-dimethoxy-5,7,11,13-tetramethyl oxacyclooctadeca-3,5,13,15-tetraen-2-one]
- GBP-1 gene expression ([1]; Synovial cells, N = 1): −1.5 log fold change
- GBP-1 gene expression ([1]; THP-1 cells, ± SE, N = 3): −1.6 + 1.0 log fold change
- pIC50 [2]: 6.52
- pIC50 [3]: 5.89

— patent US20120225889A1, “USE OF MACROCYCLIC LACTONE DERIVATIVES FOR THE TREATMENT OF INFLAMMATORY DISORDERS” (PIRAMAL LIFE SCIENCES LIMITED, priority 2010, published 2012)
